In patent US20190030036A1, “PHOSPHODIESTERASE INHIBITOR TREATMENT” (Cyrano Therapeutics, Inc., priority 2013, published 2019):

How the values were obtained:
patients with hyposmia [1] = test: Side effects of intranasal theophylline (Example 7); format: in vivo, human; conditions: intranasal theophylline 20 μg per naris once a day
Source text: Ten hyposmia patients were enrolled in the study; eight patients have completed all four phases of the study with the remaining two patients still in process.

[2] = system: patients with hyposmia and hypogeusia; test: Gustometry (DT, RT, ME, HR for 4 tastants) (Example 8); format: in vivo, human
Source text: (§1) Measurements included determination of detection thresholds (DTs), recognition thresholds (RTs), magnitude estimation (ME), and hedonic response (HR) for 4 odors (e.g., pyridine [dead fish], nitrobenzene [bitter almond], thiophene [petroleum], and amyl acetate [banana oil]) (olfactometry) and for 4 tastants (e.g., sodium chloride [salt], sucrose [sweet], […] [sour], and urea [bitter]) (gustometry).

cGMP = test: Parotid saliva cGMP after oral theophylline (Example 2); format: in vivo, human; conditions: for saliva cGMP levels over initial values: improved patients; for cGMP: parotid saliva
Description: Parotid saliva was collected from each patient by application of a Lashley cup over Stensen's duct with lingual stimulation by placement of concentrated lemon juice. Saliva was collected in plastic tubes and stored at −20° C. until assayed. cAMP and cGMP were measured in saliva by a sensitive 96 plate spectrophotometric assay (R&D Systems, Minneapolis, Minn.).
All patients were placed in a fixed design open label clinical trial with treatment with oral theophylline. Treatment consisted of fixed treatment periods of two-eight months with sequential doses of the drug at 200 mg, 400 mg and 600 mg. At termination of each of these intervals, patients returned to study site for reevaluation. At the end of each interval subjective responses to treatment were measured with a modification of the 0-100 scale previously used. Subjective responses to treatment were graded on a sliding scale from −100−0-+100 with patients recording improvement (+0-+100), no improvement (0) or worsening (0-−100) of their overall smell function. If overall smell function improved ≥5% they were considered to improve clinically (1). If smell function improved <5% they were considered not to improve (1). At the end of each interval subjective measurements of smell function, measurements of DT, RT, ME and H and measurements of parotid saliva for levels of cAMP and cGMP were obtained. In addition, blood plasma was obtained by venipuncture, placed in ice into zinc free tubes which contained 100 mg zinc free heparin, centrifuged at 3000 rpm for 10-20 min, the plasma transferred to plastic PCR tubes and stored at −20° C. until assayed. Theophylline was assayed by a fluorescence polarization assay (Abbott, Chicago, Ill.), as previously described.
Data for the cyclic nucleotides from these 31 patients was not analyzed until the entire study of the 312 patients in Example 1 was assembled and analyzed in its entirety. After completion of these analyses, all data for parotid saliva cAMP and cGMP from all patients in whom salivary cAMP and cGMP were obtained were assembled. Levels of salivary cyclic nucleotides varied widely. Initially, without external criteria, there was no way to understand these disparate data. […] In a similar manner, measurements of each patient's plasma theophylline level at each dosage of theophylline (at 200 mg, 400 mg, 600 mg of theophylline) were categorized. The two patient groups were also analyzed post hoc with respect to type of smell loss and etiology of smell loss.

patients with hyposmia [3] = test: Subjective overall change in smell function; open trial of oral theophylline; format: in vivo, human
Description: Independently, patients were also required to grade their ability to smell daily on a scale from 0-100, with 0 reflecting no overall smell function over a 24 hour period, 100 reflecting normal overall smell function over this period and numbers from 0-100 reflecting their estimation of their overall ability to smell odors over this period.
After determination of hyposmia, patients were treated in an open label, fixed design, controlled open trial. Patients were given an oral extended release theophylline in divided daily doses taken in the middle of breakfast and lunch. All patients were initially given 200 mg of theophylline; changes in this dose were made based upon subjective responses to therapy. If at a subsequent return visit, patients reported ≥5% subjective improvement in overall smell function, they continued on this same dose of theophylline and were reevaluated after four to six months of continued treatment. Results from any subsequent return from these improved patients were not included in any subsequent data report. All subsequent comparisons between treated and untreated patients were made only between those patients continuing in the study compared to their own measurements obtained in the untreated state. If patients reported <5% subjective improvement, their theophylline dose was increased by 200 mg daily and they were scheduled for retesting at the study site after two to four months at this new dosage. For patients that reported <5% improvement, this sequence continued until patients reached 800 mg of theophylline, at which time the study was considered completed.
Patients returned for reevaluation after two to four months of treatment. Measurements of blood serum theophylline were measured by a fluorescence polarization assay (Abbott, Chicago, Ill.). At this time, subjective changes in smell function were measured independently (compared to patient's memory of previous normal smell function monitored by use of the patients' daily measurements) using the scale from −100−0-+100 previously described. After independently recording their subjective responses, smell function was measured for all four odors with DT, RT, ME and H determined without recourse to prior measurements.
Subjective overall changes in smell acuity were reported by telephone and by FAX or email at two—four month intervals after treatment was initiated using the standardized form in which they measured daily changes in smell acuity using the −100−0-+100 scale as noted above. Using the same criteria noted above, if at their initial two—four month call-in they reported improvement in smell acuity of ≥5%, they continued at 200 mg and returned to the study site at four—six months on this treatment dose. If they reported improvement in smell acuity of <5% their dose of theophylline was increased to 400 mg for an additional two—four months and they then called the study site at the end of this period.

[4] = system: patients with hyposmia and hypogeusia; test: Olfactometry (DT, RT, ME, HR for 4 odors) (Example 8); format: in vivo, human; conditions: intranasal theophylline vs before treatment or after oral theophylline
Source text: as §1

patients with hyposmia [5] = test: Subjective taste and smell response, intranasal theophylline pilot study (Example 7); conditions: intranasal theophylline 20 μg per naris once a day, four weeks; six of first eight patients
Source text: These patients were previously treated with oral theophylline or were switched from oral theophylline to intranasal theophylline at the start of the study. Selection for inclusion in the intranasal study was based upon several criteria. 1) non-response to oral theophylline; 2) severe side effects with oral theophylline that prevented reaching a dose of sufficient strength to restore smell function; and/or 3) preference for intranasal medication over oral medication.
Subjective responses to treatment were obtained independent of any interaction with the clinical staff by using a scale of 0-100 to measure response of taste function and smell function to treatment with 0 indicating no response, 100 indicating return to normal function and intermediate numbers indicating an intermediate response.
The patients inserted a plastic syringe containing 0.4 ml of fluid (20 μg theophylline) into each naris once a day. […] The drug dose was delivered through a plastic nipple which fitted snugly onto the filled syringe which was attached directly to the nipple. One nipple was supplied for each set of two syringes in each application kit. The patient fitted the nipple on one syringe, placed the nipple securely into the lower naris and injected the contents of the syringe directly into the lower vault of one naris accompanied by a modest inhalation. […]

## Cn1c(=O)c2[nH]cnc2n(C)c1=O [theophylline]
Patients with hyposmia [1]
  side effects of intranasal use: No side effects
[2]; intranasal theophylline vs before any treatment or after oral theophylline
  Magnitude estimations for all tastants: higher (more intense)
[2]; intranasal theophylline vs before treatment or after oral theophylline
  DTs and RTs for all tastants: lower (more sensitive)
cGMP; oral theophylline 400 mg
  saliva cGMP levels over initial values: 275%
cGMP; oral theophylline 600 mg
  saliva cGMP levels over initial values: 338%
cGMP; oral theophylline 200 mg, patients with improved smell function (15)
  cGMP: 0.08 ± 0.016 pmol/mL
cGMP; oral theophylline 200 mg, patients with unimproved smell function (9)
  cGMP: 0.07 ± 0.018 pmol/mL
cGMP; oral theophylline 400 mg, patients with unimproved smell function (4)
  cGMP: 0.05 ± 0.014 pmol/mL
cGMP; oral theophylline 600 mg, patients with unimproved smell function (5)
  cGMP: 0.04 ± 0.07 pmol/mL
Patients with hyposmia [3]; oral theophylline 200 mg daily, two-six months, 199 returning patients
  patients improved ≥5% (subjective smell function): 17.1%
Patients with hyposmia [3]; oral theophylline 200 mg daily, of 34 improved patients
  improved patients who considered their smell function had returned to normal: 26.5%
Patients with hyposmia [3]; oral theophylline 200 mg, 15 non-returning patients
  non-returning patients reporting >5% improvement: 46.7%
Patients with hyposmia [3]; oral theophylline 200 mg, non-returning patients
  improved non-returning patients reporting a return to normal: 14.3%
Patients with hyposmia [3]; oral theophylline 400 mg daily, two-six months, 120 patients
  patients improved ≥5% (subjective smell function): 29.2%
Patients with hyposmia [3]; oral theophylline 400 mg daily, of 35 improved patients
  improved patients who considered their smell function had returned to normal: 8.6%
Patients with hyposmia [3]; oral theophylline 600 mg daily, two-12 months, 160 patients
  patients improved ≥5% (subjective smell function): 41.2%
Patients with hyposmia [3]; oral theophylline 600 mg daily, 17 patients
  patients who considered their smell function had returned to normal: 10.6%
Patients with hyposmia [3]; oral theophylline 800 mg daily, two-12 months, 28 patients
  patients improved ≥5% (subjective smell function): 53.6%
Patients with hyposmia [3]; oral theophylline 800 mg daily, three patients
  patients who considered their smell function had returned to normal: 33%
Patients with hyposmia [3]; oral theophylline 200-600 mg, Type III hyposmia
  improved patients reporting smell function returned to normal: 60%
Patients with hyposmia [3]; oral theophylline 200-600 mg, eight patients with Type III hyposmia
  patients reporting >5% improvement: 62.5%
Patients with hyposmia [3]; oral theophylline 200-800 mg, 96 patients with Type I hyposmia
  patients reporting >5% improvement: 33.3%
Patients with hyposmia [3]; oral theophylline 200-800 mg, 208 patients with Type II hyposmia
  patients reporting >5% improvement: 62%
Patients with hyposmia [3]; oral theophylline 200-800 mg, Type I hyposmia
  improved patients reporting smell function returned to normal: 15.6%
Patients with hyposmia [3]; oral theophylline 200-800 mg, Type II hyposmia
  improved patients reporting smell function returned to normal: 20.2%
Patients with hyposmia [3]; oral theophylline, 34 of 157
  responsive patients who considered smell function returned to normal levels: 21.7%
Patients with hyposmia [3]; oral theophylline, 157 of the 312 patients
  patients subjectively responsive to treatment: 50.3%
Patients with hyposmia [3]; oral theophylline, all 312 patients
  all patients in the study who considered smell function returned to normal: 10.9%
[4]
  DTs and RTs for each odor: lower (more sensitive)
  Magnitude estimations for each odor: higher (more intense)
Patients with hyposmia [5]
  patients with subjective improvement in smell function: 75%
